Data on four compounds can be found in publication PMC12004451, “Characterization of the Two-Domain Peptide Binding Mechanism of the Human CGRP Receptor for CGRP and the Ultrahigh Affinity ssCGRP Variant” (Biochemistry, 2025).

The target of experiment [1] is T1, CGRP receptor (Nluc-CLR:RAMP1) (Homo sapiens, UniProt O60894+Q16602).
T1 construct: N-terminally Nanoluciferase (NLuc)-tagged CLR (pcDNA3.1(+)sec/NanoLuc-GSGIS-CLR.23-461); Wild-type CLR and RAMP expression plasmids were obtained from cDNA.org; sec (vector secretion signal before NanoLuc) (N); expressed in transfected cells; host or cells: COS-7 cells, membrane preparation
Put plainly: nanoBRET association kinetics of TAMRA probes. It is filed as binding. The protocol:
After 2 days, the cells were washed with PBS and harvested with ice-cold PBS + 5 mM EDTA. The cells were pelleted in a centrifuge at 1000g for 5 min at 4 °C and resuspended in a hypotonic buffer (25 mM NaHEPES pH 7.5, 2 mM MgCl2, 1 mM EDTA, and 1× EDTA-free PIERCE protease inhibitor tablet). After resuspension, cells were homogenized with an Ultra Turrax for 30 s at 10,000 rpm followed by a 10 min incubation. Cell debris was pelleted at 800g for 10 min and the supernatant was transferred to ultracentrifuge tubes and centrifuged at 100,000g for 1 h. Membranes were resuspended in a wash buffer (25 mM NaHEPES pH 7.5, 250 mM NaCl, 2 mM MgCl2, 1 mM EDTA, and 1× protease inhibitor tablet). The homogenization and ultracentrifugation were repeated once more and the membranes were resuspended in storage buffer (25 mM NaHEPES pH 7.5, 25 mM NaCl, 2 mM MgCl2, 10% v/v glycerol, and 1× protease inhibitor tablet). The resuspended membranes were homogenized, aliquoted, and flash frozen in liquid nitrogen for storage at -80 °C. Total protein was quantitated using the DC protein assay (BioRad) per the manufacturer's instructions. The concentration of NLuc-CLR was determined by comparing the membrane prep luminescence to a standard curve using purified NLuc enzyme (Promega; […]). […] Costar 3912). […] The observed association rates (kobs) were plotted against probe concentration and the data was analyzed by linear regression. The kon and koff were obtained as the slope and y-intercept, respectively.
On the technique in general: In BRET a luciferase serves as donor, and the signal depends on an acceptor being close.

The target of experiment [2] is T1, CGRP receptor (Nluc-CLR:RAMP1). Put plainly: nanoBRET equilibrium competition binding, Nluc-CLR:RAMP1 membranes. The following applies: room temperature, Cheng-Prusoff, mean ± SEM, n=3. As for the experimental part: After 2 days, the cells were washed with PBS and harvested with ice-cold PBS + 5 mM EDTA. The cells were pelleted in a centrifuge at 1000g for 5 min at 4 °C and resuspended in a hypotonic buffer (25 mM NaHEPES pH 7.5, 2 mM MgCl2, 1 mM EDTA, and 1× EDTA-free PIERCE protease inhibitor tablet). After resuspension, cells were homogenized with an Ultra Turrax for 30 s at 10,000 rpm followed by a 10 min incubation. Cell debris was pelleted at 800g for 10 min and the supernatant was transferred to ultracentrifuge tubes and centrifuged at 100,000g for 1 h. Membranes were resuspended in a wash buffer (25 mM NaHEPES pH 7.5, 250 mM NaCl, 2 mM MgCl2, 1 mM EDTA, and 1× protease inhibitor tablet). The homogenization and ultracentrifugation were repeated once more and the membranes were resuspended in storage buffer (25 mM NaHEPES pH 7.5, 25 mM NaCl, 2 mM MgCl2, 10% v/v glycerol, and 1× protease inhibitor tablet). The resuspended membranes were homogenized, aliquoted, and flash frozen in liquid nitrogen for storage at -80 °C. Total protein was quantitated using the DC protein assay (BioRad) per the manufacturer's instructions. The concentration of NLuc-CLR was determined by comparing the membrane prep luminescence to a standard curve using purified NLuc enzyme (Promega; […]). […] The Cheng-Prusoff correction[30] was used to calculate the Ki from the IC50.

Experiment [3] has the same target. Description: nanoBRET competition association kinetics (Motulsky-Mahan). The following applies: for Kd: mean ± SEM, n=3, read-out: Kd calc (koff/kon). In kind it is binding. As for the experimental part:
Membrane preparation was performed as previously described.[29] COS-7 cells in ten […] plastic culture dishes (Corning; 430599) were transiently transfected with 2 μg NLuc-CLR, 2 μg RAMP1, and 46 μg empty pcDNA3.1(+) expression plasmids/dish with 75 μg Polyethylenimine (PEI)/dish. After 2 days, the cells were washed with PBS and harvested with ice-cold PBS + 5 mM EDTA. The cells were pelleted in a centrifuge at 1000g for 5 min at 4 °C and resuspended in a hypotonic buffer (25 mM NaHEPES pH 7.5, 2 mM MgCl2, 1 mM EDTA, and 1× EDTA-free PIERCE protease inhibitor tablet). After resuspension, cells were homogenized with an Ultra Turrax for 30 s at 10,000 rpm followed by a 10 min incubation. Cell debris was pelleted at 800g for 10 min and the supernatant was transferred to ultracentrifuge tubes and centrifuged at 100,000g for 1 h. Membranes were resuspended in a wash buffer (25 mM NaHEPES pH 7.5, 250 mM NaCl, 2 mM MgCl2, 1 mM EDTA, and 1× protease inhibitor tablet). The homogenization and ultracentrifugation were repeated once more and the membranes were resuspended in storage buffer (25 mM NaHEPES pH 7.5, 25 mM NaCl, 2 mM MgCl2, 10% v/v glycerol, and 1× protease inhibitor tablet). The resuspended membranes were homogenized, aliquoted, and flash frozen in liquid nitrogen for storage at −80 °C. Total protein was quantitated using the DC protein assay (BioRad) per the manufacturer’s instructions. The concentration of NLuc-CLR was determined by comparing the membrane prep luminescence to a standard curve using purified NLuc enzyme (Promega; G9711). The total protein concentration was 0.91 mg/mL and the NLuc-CLR was 7.35 nM.
Emission at 460 and 610 nm were measured every 16 s for 45 min with the PolarSTAR Omega plate reader mixing 300 rpm for 1 s before each cycle. The curves were fit using GraphPad Prism to the Motulsky-Mahan competition kinetics equation[31] modified to account for the signal decay component as previously described[32] to determine the kon and koff of the competitor. The Kd (koff/kon), half-life (ln 2/koff), and residence time (1/koff) values were calculated.

The mark [4] stands for this setting: competition against 10 nM CGRP(27-37)*-TAMRA probe, 2 h, read-out: Ki.

Several values for one entry are separate records, joined by “and”; a condition that tells them apart may be missing. Equal entries are not always repeated. Where two headings read alike, the source gives them in different places. Bridge positions count the residues as written; N and C are the ends. Ends that are not written are not given here. Peptide text beside a SMILES is read from it. * marks the point of attachment. 5TAMRA = CN(C)c1ccc2c(c1)Oc1cc(N(C)C)ccc1C21OC(=O)c2cc(C(=O)*)ccc21

Take `CC(C)[C@H](NC(=O)[C@H](CC(=O)O)NC(=O)[C@@H](NC(=O)[C@@H]1CCCN1C(=O)[C@@H](NC(=O)[C@@H](N)Cc1ccccc1)C(C)C)[C@@H](C)O)C(=O)NCC(=O)N1CCC[C@H]1C(=O)N[C@@H](CCCCNC(=O)c1ccc2c(c1)C(=O)OC21c2ccc(N(C)C)cc2Oc2cc(N(C)C)ccc21)C(=O)N[C@@H](CO)C(=O)N[C@@H](Cc1ccc(O)cc1)C(N)=O` [CGRP(27-37)*-TAMRA, αCGRP(27-37) N31D/S34P/K35-TAMRA/A36S/F37Y] (H-FVPTDVGPK(5TAMRA)SY-NH2; N-terminus assumed): in experiment [1] (association kinetics, 25 °C, kobs vs probe concentration, slope of linear regression, fit of first 10 min (full 1 h 15 min for ssCGRP(8-37)-TAMRA), mean ± SEM, n=3), the kon (commonly the rate constant with which the complex forms) is 2.75e+06 M⁻¹ s⁻¹. In addition, the koff (in general, the first-order rate constant of dissociation) in experiment [1] (association kinetics, 25 °C, y-intercept of kobs vs probe concentration, mean ± SEM, n=3) was 0.0635 s⁻¹. Further, the half-life in experiment [1] (from association kinetics) was determined as 11 s.
Consider `CC(C)C[C@H](NC(=O)CNC(=O)[C@H](C)NC(=O)[C@H](CC(C)C)NC(=O)[C@H](CCCNC(=N)N)NC(=O)[C@H](Cc1c[nH]cn1)NC(=O)[C@@H](NC(=O)[C@@H](NC(=O)[C@@H]1CSSC[C@H](NC(=O)[C@H](C)N)C(=O)N[C@@H](CC(=O)O)C(=O)N[C@@H]([C@@H](C)O)C(=O)N[C@@H](C)C(=O)N[C@@H]([C@@H](C)O)C(=O)N1)C(C)C)[C@@H](C)O)C(=O)N[C@@H](CC(C)C)C(=O)N[C@@H](CO)C(=O)N[C@@H](CCCNC(=N)N)C(=O)N[C@@H](CO)C(=O)NCC(=O)NCC(=O)N[C@H](C(=O)N[C@H](C(=O)N[C@@H](CCCCN)C(=O)N[C@@H](CC(N)=O)C(=O)N[C@@H](CC(N)=O)C(=O)N[C@@H](Cc1ccccc1)C(=O)N[C@H](C(=O)N1CCC[C@H]1C(=O)N[C@H](C(=O)N[C@@H](CC(=O)O)C(=O)N[C@H](C(=O)NCC(=O)N1CCC[C@H]1C(=O)N[C@@H](Cc1c[nH]c2ccccc12)C(=O)N[C@@H](CO)C(=O)N[C@@H](Cc1ccccc1)C(N)=O)C(C)C)[C@@H](C)O)C(C)C)C(C)C)C(C)C` [ssCGRP(1-37)] (H-ACDTATCVTHRLAGLLSRSGGVVKNNFVPTDVGPWSF-NH2; disulfide 2-7), for which the Ki (usually a measure of affinity in units of concentration, obtained from inhibition or displacement) stood at 0.19 ± 0.01 nM in experiment [2] (G protein coupled state (30 μM sumo-miniGs), 3 nM AM2/IMD(8-47)-TAMRA probe, 8 h, read-out: Ki + mGs) and 0.248 ± 0.008 nM in experiment [2] (G protein uncoupled state (50 μM GTPγS), 30 nM AM2/IMD(8-47)-TAMRA probe, 8 h, read-out: Ki + GTPγS).
On to FVPTDVGPWSF-NH2 [ssCGRP(27-37)], for which the Ki in experiment [2] (setting [4]) came to 0.527 ± 0.039 nM. In experiment [3], the koff is 0.00222 s⁻¹ and the kon was 3.22e+06 M⁻¹ s⁻¹. Further, in experiment [3] (from competition kinetics), the “Residence time (1/koff)” value is 7.57 ± 0.27 min and ~8 min; the “t1/2 (ln 2/koff)” value is listed as 5.24 ± 0.18 min; the Kd was 0.73 nM.
Take “FVPTNVGSKAF-NH2 [CGRP(27-37), reference compound]”: the Ki in experiment [2] (setting [4]) amounted to 1050 nM. In experiment [3], this compound gave an off-rate constant (koff) of 0.203 s⁻¹ and a kon of 195000 M⁻¹ s⁻¹. Further, in experiment [3] (from competition kinetics), the “Residence time (1/koff)” value is 0.087 ± 0.015 min, the residence time is ~0.0833 min, the “t1/2 (ln 2/koff)” value turned out to be 0.06 ± 0.01 min and the Kd is 1040 nM.
